Values after ≈ are worked out from the molar mass of the structure shown.
Assays:
[1] = Thermodynamic (equilibrium) solubility at 37° C., immersed UV probes; assay type: physicochemical; details: aqueous buffer, thermodynamic from solid
[2] = pH 5; cited from earlier work

**Q.** For `COc1ccc(-c2nc3ccc(C4=NNC(=O)CC4C)cc3[nH]2)cc1` (stereo not drawn) [Crystalline pimobendan], which solubility thermodynamic ([1]; pH 3.0 (maleic acid buffer)) is on record?
**A.** Its solubility thermodynamic is 19.5 µg/mL (≈ 58.3 µM).

**Q.** What about the solubility thermodynamic ([1]; pH 6.5 (phosphate buffer)) of the same compound?
**A.** The solubility thermodynamic was 0.3 µg/mL (≈ 0.897 µM).

**Q.** What about the “Solubility (amount that dissolves) in water” value [2] of the same compound?
**A.** The value was “about 1 mg/liter”.

Source: patent US20240197727A1, “SOLID DISPERSIONS COMPRISING AMORPHOUS PIMOBENDAN AND ONE OR MORE STABILIZING POLYMERS” (Boehringer Ingelheim Vetmedica GmbH, priority 2022, published 2024)
